What was measured:
Format in all cases: cell-based
[1] = target: T1, IRAK4 (Homo sapiens, UniProt Q9NWZ3); test: OCI-LY-10 MSD assay for IRAK4 DC50; parameters: endogenous in cells; host or cells: OCI-LY10; settings: OCI-LY10 cells, 4 hr incubation, concentration required to degrade 50% of protein
T1 sequence (Q9NWZ3 1-460): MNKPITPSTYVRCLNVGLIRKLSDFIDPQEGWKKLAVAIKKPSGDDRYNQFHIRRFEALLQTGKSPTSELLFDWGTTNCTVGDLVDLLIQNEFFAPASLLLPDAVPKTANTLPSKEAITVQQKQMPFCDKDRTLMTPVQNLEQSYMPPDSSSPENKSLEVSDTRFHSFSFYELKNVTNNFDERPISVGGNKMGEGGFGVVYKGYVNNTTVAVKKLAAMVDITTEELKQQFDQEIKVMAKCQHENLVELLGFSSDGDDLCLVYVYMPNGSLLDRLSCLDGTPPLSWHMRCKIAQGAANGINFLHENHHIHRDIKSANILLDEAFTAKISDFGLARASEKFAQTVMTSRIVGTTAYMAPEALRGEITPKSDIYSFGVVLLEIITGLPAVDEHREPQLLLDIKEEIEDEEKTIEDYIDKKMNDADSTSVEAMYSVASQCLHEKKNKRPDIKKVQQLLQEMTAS
How it was run: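 IRAK4 level was quantified by MSD electrochemiluminescence (anti-IRAK4 capture antibody, rabbit anti-IRAK4 detection antibody) in RIPA lysates of OCI-Ly10 cells. Cells had been treated with compound for 4 hr (8-point, 3-fold serial dilution). Remaining protein versus concentration was fitted to a sigmoidal curve to give DC50.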

[2] = target: T1, IRAK4; test: OCI-LY-10 degradation assay (western blot, % IRAK4 degraded after 4 hours); parameters: endogenous in cells; host or cells: OCI-LY10; settings: OCI-LY10 cells, 4 hours; for OCI-LY10 % IRAK4 Degradation (0.01 uM): 0.01 uM compound; for OCI-LY10 % IRAK4 Degradation (0.1 uM): 0.1 uM compound; for OCI-LY10 % IRAK4 Degradation (1 uM): 1 uM compound
How it was run: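 IRAK4 loss after 4 h at 37° C was scored A (>50%), B (>20-50%) or C (<20%) from infrared western blots of RIPA lysates, 20-25 μg protein per lane. Compound was applied at 0.003-10 μM final to OCI-LY10 cells cultured in RPMI-1640 with 20% FBS and 55 μM 2-ME.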

[3] = tested on: OCI-LY10 cells; test: OCI-LY-10 CTG cell viability assay (EC50); settings: Homo sapiens, 96 h, CellTiter-Glo cell viability, 4 days incubation, top concentration 10 μM, read-out: OCI-LY10 IRAK4 EC50
Procedure: A CTG cell viability assay using OCI-LY-10 cells was run to determine compound-mediated cell viability (EC50).
Compound-mediated viability effect on OCI-LY10 was quantitatively determined using the CellTiter-Glo® Luminescent Cell Viability Assay kit from Promega (Catalog number G7570) following manufacturer's recommended procedures. […] Compounds were then added to the assay plate with final top concentration of 10 μM and 1:3 dilution series with total of 9 doses. The final DMSO concentration was normalized to 0.2%. The assay plates were incubated at 37° C. for 4 days under 5% CO2. Then the assay plate was equilibrated at room temperature for 10 minutes. […] The data was then analyzed by software Prism 7.0 from GraphPad and the dose response curves were fit using a three-parameter logistic equation to calculate EC50.

Structure (SMILES) | DC50 [1] | OCI-LY10 % IRAK4 Degradation (0.01 uM) [2] | OCI-LY10 % IRAK4 Degradation (0.1 uM) [2] | OCI-LY10 % IRAK4 Degradation (1 uM) [2] | EC50 [3]
NC(=O)c1nn(-c2ccc(CNCCOCCOCCCc3cccc4c3C(=O)N(C3CCC(=O)NC3=O)C4=O)cc2)cc1NC(=O)c1coc(-c2ccnc(NCC(F)(F)F)c2)n1 (stereo not drawn) [I-321] | < 0.05 µM | B (>20-50% degradation) | A (>50% degradation) | A (>50% degradation) | 
Cn1c(=O)n(C2CCC(=O)NC2=O)c2cccc(CCCOCCOCCNCc3ccc(-n4cc(NC(=O)c5coc(-c6ccnc(NCC7CC7)c6)n5)c(C(F)F)n4)cc3)c21 (stereo not drawn) [I-332] | < 0.05 µM | A (>50% degradation) | A (>50% degradation) | A (>50% degradation) | 
O=C1CCC(N2C(=O)c3cccc(OCc4cn(CCOCCOCCNCc5ccc(-n6cc(NC(=O)c7coc(-c8ccnc(NCC9CC9)c8)n7)c(C(F)F)n6)cc5)nn4)c3C2=O)C(=O)N1 (stereo not drawn) [I-344] | 0.05 to 0.1 µM | C (<20% degradation) | A (>50% degradation) | A (>50% degradation) | 
O=C1CCC(N2C(=O)c3cccc(NCCOCCN4CC5(CN(CCOCCNCc6ccc(-n7cc(NC(=O)c8coc(-c9ccnc(NCC%10CC%10)c9)n8)c(C(F)F)n7)cc6)C5)C4)c3C2=O)C(=O)N1 (stereo not drawn) [I-350] | > 1 µM | C (<20% degradation) | C (<20% degradation) | B (>20-50% degradation) | 
O=C1CCC(N2C(=O)c3ccc(NCCOCCN4CC5(CN(CCOCCNCc6ccc(-n7cc(NC(=O)c8coc(-c9ccnc(NCC%10CC%10)c9)n8)c(C(F)F)n7)cc6)C5)C4)cc3C2=O)C(=O)N1 (stereo not drawn) [I-351] | 0.1 to 0.5 µM | C (<20% degradation) | C (<20% degradation) | A (>50% degradation) | 
Cn1cc(-c2nc(C(=O)Nc3cn(-c4ccc(CNCCOCCOCCNc5cccc6c5C(=O)N(C5CCC(=O)NC5=O)C6=O)cc4)nc3C(F)F)co2)cn1 (stereo not drawn) [I-352] | > 1 µM | C (<20% degradation) | C (<20% degradation) | C (<20% degradation) | 
CN(CCCc1cccc2c1C(=O)N(C1CCC(=O)NC1=O)C2=O)Cc1ccc(-n2cc(NC(=O)c3coc(-c4ccnc(NCC(F)(F)F)c4)n3)c(C(F)F)n2)cc1 (stereo not drawn) [I-360] | > 1 µM | B (>20-50% degradation) | C (<20% degradation) | C (<20% degradation) | 
O=C1CCC(N2C(=O)c3cccc(CCCNCc4ccc(-n5cc(NC(=O)c6coc(-c7ccncc7)n6)c(C(F)F)n5)cc4)c3C2=O)C(=O)N1 (stereo not drawn) [I-366] | > 1 µM | C (<20% degradation) | C (<20% degradation) | C (<20% degradation) | 
O=C1CCC(N2C(=O)c3ccc(CCCNCc4ccc(-n5cc(NC(=O)c6coc(-c7ccnc(NCC8CC8)c7)n6)c(C(F)F)n5)cc4)cc3C2=O)C(=O)N1 (stereo not drawn) [I-371] | > 1 µM | C (<20% degradation) | C (<20% degradation) | B (>20-50% degradation) | 
O=C1CCC(N2C(=O)c3ccc(CCCOCCNCc4ccc(-n5cc(NC(=O)c6coc(-c7ccnc(NCC8CC8)c7)n6)c(C(F)F)n5)cc4)cc3C2=O)C(=O)N1 (stereo not drawn) [I-381] | < 0.05 µM | B (>20-50% degradation) | A (>50% degradation) | A (>50% degradation) | 
O=C1CCC(N2C(=O)c3cccc(NC4CCN(CCOCCOCCOCCNCc5ccc(-n6cc(NC(=O)c7coc(-c8ccnc(NCC9CC9)c8)n7)c(C(F)F)n6)cc5)CC4)c3C2=O)C(=O)N1 (stereo not drawn) [I-386] | 0.1 to 0.5 µM | C (<20% degradation) | B (>20-50% degradation) | A (>50% degradation) | 
O=C1CCC(N2Cc3cc(NC4CCN(CCOCCOCCNCc5ccc(-n6cc(NC(=O)c7coc(-c8ccnc(NCC9CC9)c8)n7)c(C(F)F)n6)cc5)CC4)ccc3C2=O)C(=O)N1 (stereo not drawn) [I-387] | > 1 µM | C (<20% degradation) | C (<20% degradation) | B (>20-50% degradation) | 
O=C1CCC(N2C(=O)c3ccc(NC4CCN(CCOCCOCCOCCNCc5ccc(-n6cc(NC(=O)c7coc(-c8ccnc(NCC9CC9)c8)n7)c(C(F)F)n6)cc5)CC4)cc3C2=O)C(=O)N1 (stereo not drawn) [I-389] | 0.5 to 1 µM | C (<20% degradation) | C (<20% degradation) | A (>50% degradation) | 
O=C1CCC(N2Cc3cc(N4CCN(CCOCCOCCNCc5ccc(-n6cc(NC(=O)c7coc(-c8ccnc(NCC9CC9)c8)n7)c(C(F)F)n6)cc5)CC4)ccc3C2=O)C(=O)N1 (stereo not drawn) [I-392] | 0.05 to 0.1 µM | B (>20-50% degradation) | A (>50% degradation) | A (>50% degradation) | 
O=C1CCC(N2C(=O)c3ccc(N4CCN(CCOCCNCc5ccc(-n6cc(NC(=O)c7coc(-c8ccnc(NCC9CC9)c8)n7)c(C(F)F)n6)cc5)CC4)cc3C2=O)C(=O)N1 (stereo not drawn) [I-393] | 0.1 to 0.5 µM | C (<20% degradation) | A (>50% degradation) | A (>50% degradation) | 
O=C1CCC(N2C(=O)c3ccc(N4CCN(CCOCCOCCOCCNCc5ccc(-n6cc(NC(=O)c7coc(-c8ccnc(NCC9CC9)c8)n7)c(C(F)F)n6)cc5)CC4)cc3C2=O)C(=O)N1 (stereo not drawn) [I-394] | 0.1 to 0.5 µM | C (<20% degradation) | A (>50% degradation) | A (>50% degradation) | 
NC(=O)c1nn(-c2ccc(CNCCOCCOCCN3CCC(Nc4cccc5c4C(=O)N(C4CCC(=O)NC4=O)C5=O)CC3)cc2)cc1NC(=O)c1coc(-c2ccnc(NCC3CC3)c2)n1 (stereo not drawn) [I-395] | > 1 µM | C (<20% degradation) | B (>20-50% degradation) | B (>20-50% degradation) | 
CN(CCNCCCc1ccc2c(c1)C(=O)N(C1CCC(=O)NC1=O)C2=O)C(=O)c1ccc(-n2cc(NC(=O)c3coc(-c4ccnc(NCC5CC5)c4)n3)c(C(N)=O)n2)cc1 (stereo not drawn) [I-397] | < 0.05 µM | B (>20-50% degradation) | A (>50% degradation) | A (>50% degradation) | 
NC(=O)c1nn(-c2ccc(C(=O)NCCOCCOCCNc3cccc4c3C(=O)N(C3CCC(=O)NC3=O)C4=O)cc2)cc1NC(=O)c1coc(-c2ccnc(N)c2)n1 (stereo not drawn) [I-427] | < 0.05 µM | B (>20-50% degradation) | A (>50% degradation) | A (>50% degradation) | 
Cn1c(=O)n(C2CCC(=O)NC2=O)c2ccc(CCCOCCOCCNC(c3ccc(-n4cc(NC(=O)c5coc(-c6ccnc(NCC7CC7)c6)n5)c(C(N)=O)n4)cc3)C(F)(F)F)cc21 (stereo not drawn) [I-448] |  |  |  |  | 0.1 to 0.5 µM
Cn1cc(NC(=O)c2coc(-c3ccnc(NCC(F)(F)F)c3)n2)c(C(=O)NCCOCCOCCOCCOCCCc2cccc3c2n(C)c(=O)n3C2CCC(=O)NC2=O)n1 (stereo not drawn) [I-455] |  |  |  |  | > 1 µM
Cn1cc(NC(=O)c2coc(-c3ccnc(NCC(F)(F)F)c3)n2)c(C(=O)NC2CCN(CCOCCOCCOCCOCCCc3cccc4c3n(C)c(=O)n4C3CCC(=O)NC3=O)CC2)n1 (stereo not drawn) [I-457] |  |  |  |  | > 1 µM
O=C1CCC(N2Cc3cc(CNC(=O)NCCOCCOCCNC(=O)n4cc(NC(=O)c5coc(-c6ccnc(NCC7CC7)c6)n5)c(C(F)F)n4)ccc3C2=O)C(=O)N1 (stereo not drawn) [I-458] |  |  |  |  | 0.05 to 0.1 µM
Cn1cc(NC(=O)c2coc(-c3ccnc(NCC(F)(F)F)c3)n2)c(C(=O)NCCOCCOCCOCCCc2cccc3c2n(C)c(=O)n3C2CCC(=O)NC2=O)n1 (stereo not drawn) [I-464] |  |  |  |  | > 1 µM
